Test results as given in PubChem BioAssay AID256 (DTP/NCI, 2004).
Where “and” joins values, the source holds several entries; their conditions need not be identical. Identical values can stand only once. Toxic doses and inconclusive results are not listed.

Test system: CD2F1 mice, L1210 leukemia ip, survival T/C
Test: NCI In Vivo Anticancer Drug Screen. Data for tumor model L1210 Leukemia (intraperitoneal) in CD2F1 (CDF1) mice
Conditions: higher = longer survival
Procedure, shortened: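 Activity against a transplanted murine tumor was judged by comparing the compound group with a vehicle group. The outcome in the treated animals was divided by that in the controls.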

[1] = endpoint: mean survival time, dose: 50.0 mg/kg/injection, schedule: Q01DX009 (ip), vehicle: saline with Tween-80
[2] = endpoint: mean survival time, dose: 100.0 mg/kg/injection, schedule: Q01DX009 (ip), vehicle: saline with Tween-80
[3] = endpoint: mean survival time, dose: 200.0 mg/kg/injection, schedule: Q01DX009 (ip), vehicle: saline with Tween-80
[4] = endpoint: mean survival time, dose: 400.0 mg/kg/injection, schedule: Q01DX009 (ip), vehicle: saline with Tween-80

Q: For CNC1=C(C)C(=O)C2=C(C1=O)C(COC(N)=O)C1(OC)C3NC3CN21 (stereo not drawn), which T/C (endpoint: mean survival time, dose: 1.5 mg/kg/injection, schedule: Q01DX001 (ip), vehicle: water) is on record?
A: 102 % of control

Q: And the T/C (endpoint: mean survival time, dose: 3.0 mg/kg/injection, schedule: Q01DX001 (ip), vehicle: water)?
A: 100 % of control

Q: What about the T/C (endpoint: mean survival time, dose: 6.0 mg/kg/injection, schedule: Q01DX001 (ip), vehicle: water) of the same molecule?
A: 108 % of control

Q: And the T/C (endpoint: mean survival time, dose: 12.0 mg/kg/injection, schedule: Q01DX001 (ip), vehicle: water)?
A: 118 % of control

Q: And the T/C (endpoint: mean survival time, dose: 24.0 mg/kg/injection, schedule: Q01DX001 (ip), vehicle: water)?
A: 124 % of control

Q: For COc1cc2ccc(/C=C/C(=O)c3ccc4c(c3)OCO4)cc2cc1OC, which T/C (endpoint: mean survival time, dose: 25.0 mg/kg/injection, schedule: Q01DX009 (ip), vehicle: water) is on record?
A: 98 % of control

Q: And the T/C (endpoint: mean survival time, dose: 50.0 mg/kg/injection, schedule: Q01DX009 (ip), vehicle: water)?
A: 91 % of control

Q: And the T/C (endpoint: mean survival time, dose: 100.0 mg/kg/injection, schedule: Q01DX009 (ip), vehicle: water)?
A: 88 % of control

Q: What about the T/C (endpoint: mean survival time, dose: 200.0 mg/kg/injection, schedule: Q01DX009 (ip), vehicle: water) of the same molecule?
A: 90 % of control

Q: What about the T/C (endpoint: mean survival time, dose: 400.0 mg/kg/injection, schedule: Q01DX009 (ip), vehicle: water) of the same molecule?
A: 88 % of control

Q: Which results are given for CC(=O)Oc1c(C)[nH]ccc1=O?
A: T/C (endpoint: mean survival time, dose: 25.0 mg/kg/injection, schedule: Q01DX009 (ip), vehicle: saline with Tween-80): 97 % of control; T/C (endpoint: mean survival time, dose: 25.0 mg/kg/injection, schedule: Q01DX009 (ip), vehicle: saline): 100 % of control; T/C [1]: 113 % of control and 107 % of control; T/C (endpoint: mean survival time, dose: 50.0 mg/kg/injection, schedule: Q01DX009 (ip), vehicle: saline): 100 % of control; T/C [2]: 118 % of control and 122 % of control; T/C (endpoint: mean survival time, dose: 100.0 mg/kg/injection, schedule: Q01DX009 (ip), vehicle: saline): 111 % of control; T/C [3]: 150 % of control; T/C (endpoint: mean survival time, dose: 200.0 mg/kg/injection, schedule: Q01DX009 (ip), vehicle: saline): 122 % of control; T/C [4]: 157 % of control

Q: Which T/C (endpoint: mean survival time, dose: 100.0 mg/kg/injection, schedule: Q04DX002 (ip), vehicle: saline with Tween-80) does the source give for CC1=C(/C=C/C(=O)O)C(C)(C)CCC1 here?
A: 92 % of control

Q: And the T/C (endpoint: mean survival time, dose: 200.0 mg/kg/injection, schedule: Q04DX002 (ip), vehicle: saline with Tween-80)?
A: 96 % of control

Q: And the T/C (endpoint: mean survival time, dose: 400.0 mg/kg/injection, schedule: Q04DX002 (ip), vehicle: saline with Tween-80)?
A: 92 % of control

Q: What does the source list for O=NN(CCCl)C(=O)NC1CCC(=O)NC1=O (stereo not drawn)?
A: T/C (endpoint: median survival time, dose: 15.0 mg/kg/injection, schedule: Q01DX001 (ip), vehicle: saline with Tween-80): 344 % of control; T/C (endpoint: median survival time, dose: 20.0 mg/kg/injection, schedule: Q01DX001 (ip), vehicle: saline with Tween-80): 344 % of control; T/C (endpoint: median survival time, dose: 25.0 mg/kg/injection, schedule: Q01DX001 (ip), vehicle: saline with Tween-80): 344 % of control; T/C (endpoint: median survival time, dose: 30.0 mg/kg/injection, schedule: Q01DX001 (ip), vehicle: saline with Tween-80): 344 % of control

Q: For CN1CN(C2CCCCC2)CSC1=S, which T/C (endpoint: mean survival time, dose: 100.0 mg/kg/injection, schedule: Q01DX001 (ip), vehicle: saline) is on record?
A: 102 % of control

Q: And the T/C [2]?
A: 102 % of control

Q: What about the T/C (endpoint: mean survival time, dose: 200.0 mg/kg/injection, schedule: Q01DX001 (ip), vehicle: saline) of the same molecule?
A: 100 % of control

Q: What about the T/C [3] of the same molecule?
A: 96 % of control

Q: And the T/C (endpoint: mean survival time, dose: 400.0 mg/kg/injection, schedule: Q01DX001 (ip), vehicle: saline)?
A: 102 % of control

Q: And the T/C [4]?
A: 106 % of control

Q: Which results are given for CCOC(=O)C(=CNc1cc(C)ccn1)C(=O)OCC?
A: T/C [2]: 109 % of control; T/C [3]: 98 % of control; T/C [4]: 94 % of control

Q: How did the T/C (endpoint: mean survival time, dose: 100.0 mg/kg/injection, schedule: Q04DX003 (ip), vehicle: saline with Tween-80) turn out when COC(=O)C(Cl)(Cl)c1nc(NC(C)=O)[nH]c(=O)c1Cl was run?
A: 95 % of control

Q: And the T/C (endpoint: mean survival time, dose: 200.0 mg/kg/injection, schedule: Q04DX003 (ip), vehicle: saline with Tween-80)?
A: 98 % of control

Q: And the T/C (endpoint: mean survival time, dose: 400.0 mg/kg/injection, schedule: Q04DX003 (ip), vehicle: saline with Tween-80)?
A: 91 % of control

Q: With O=C(CCCC(Br)c1ccccc1)c1ccccc1 (stereo not drawn) as the molecule, how does the T/C (endpoint: mean survival time, dose: 100.0 mg/kg/injection, schedule: Q01DX001 (ip), vehicle: saline with Tween-80) read?
A: 90 % of control

Q: And the T/C (endpoint: mean survival time, dose: 400.0 mg/kg/injection, schedule: Q01DX001 (ip), vehicle: saline with Tween-80)?
A: 95 % of control

Q: With CC1C2C=CC(C2)C1C(=O)O (stereo not drawn) as the molecule, how does the T/C [1] read?
A: 93 % of control

Q: What about the T/C [2] of the same molecule?
A: 96 % of control and 98 % of control

Q: What about the T/C [3] of the same molecule?
A: 100 % of control and 87 % of control

Q: CCN(CC)c1cccc(O)c1 was tested. Which T/C [1] did it give?
A: 92 % of control

Q: What about the T/C [2] of the same molecule?
A: 98 % of control

Q: Which results are given for CCOP(=O)(N=S=O)OCC?
A: T/C (endpoint: mean survival time, dose: 12.5 mg/kg/injection, schedule: Q04DX003 (ip), vehicle: saline): 100 % of control; T/C (endpoint: mean survival time, dose: 25.0 mg/kg/injection, schedule: Q04DX003 (ip), vehicle: saline): 103 % of control; T/C (endpoint: mean survival time, dose: 50.0 mg/kg/injection, schedule: Q04DX003 (ip), vehicle: saline): 113 % of control
